# Results from patent US10280184B2, “Heterocyclic kinase inhibitors” (AbbVie Inc., priority 2014, dated 2019).
# Counter-ions that a name gives are not always drawn.
# Target: BTK (Homo sapiens (Human), UniProt Q06187)
# Test: In vitro BTK kinase activity measured by trFRET
# Type: biochemical
# Details: recombinant human catalytic domain (aa 393-659), 0.01 mM ATP; read-out: Btk enzyme IC50
# Procedure: In Vitro BTK Kinase Activity Measured by Time-Resolved Fluorescence Resonance Energy Transfer (trFRET)
# The in-house BTK corresponds to recombinant human catalytic domain (aa 393-659), which was expressed in SF9 cells with an N-terminal his tag and purified by immobilized metal affinity chromatography. BTK was mixed with peptide substrate (biotin-TYR1, Sequence: Biotin-(Ahx)-GAEEEIYAAFFA-COOH, 0.4 μM final) at varying inhibitor concentrations in reaction buffer: 50 mM MOPSO pH 6.5, 10 mM MgCl2, 2 mM MnCl2, 2.5 mM DTT, 0.01% BSA, 0.1 mM Na3VO4 and 0.01 mM ATP. After about 60 min incubation at rt, the reaction was quenched by addition of EDTA (final concentration: 100 mM) and developed by addition of detection reagents (final approximate concentrations: 30 mM HEPES pH 7.0, 0.06% BSA, 0.006% Tween-20, 0.24 M KF, 80 ng/mL PT66K (europium labeled anti-phosphotyrosine antibody cat #61T66KLB Cisbio, Bedford, Mass.) and 0.6 μg/mL SAXL (Phycolink streptavidin-allophycocyanin acceptor, cat #PJ25S, Prozyme, San Leandro, Calif.). The developed reaction was incubated in the dark for about 60 min at rt, then read via a time-resolved fluorescence detector (Rubystar, BMG) using a 337 nm laser for excitation and monitoring emission wavelength at 665 nm. Within the linear range of the assay, the observed signal at 665 nm was directly related to phosphorylated product and can be used to calculate the IC50 values.
# Chain of BTK (Q06187 393-659): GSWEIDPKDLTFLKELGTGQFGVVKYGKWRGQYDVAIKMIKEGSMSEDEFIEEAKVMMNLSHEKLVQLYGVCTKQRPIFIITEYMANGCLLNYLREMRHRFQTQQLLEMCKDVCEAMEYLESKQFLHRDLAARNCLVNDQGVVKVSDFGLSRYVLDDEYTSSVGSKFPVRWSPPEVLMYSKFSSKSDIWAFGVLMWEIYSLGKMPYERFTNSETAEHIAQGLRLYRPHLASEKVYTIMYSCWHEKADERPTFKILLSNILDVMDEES
row,Compound,IC50 [nM]
1,"C=CC(=O)N1CCC[C@H](c2cc(Nc3cc4n(n3)CCOC4)c3ncnn3c2)C1 (single isomer, unassigned) [Example 5]",< 100
2,"C=CC(=O)N1CC[C@H](c2cn3ncnc3c(Nc3cnn(C)c3)n2)C1 (single isomer, unassigned) [Example 6]",< 100
3,"C=CC(=O)N[C@@H]1CC[C@H](c2cc(Nc3ccn(C)n3)c3ncnn3c2)C1 (single isomer, unassigned) [Example 7]",< 100
4,"C=CC(=O)N[C@@H]1CC[C@H](c2cc(Nc3cc4n(n3)CCOC4)c3ncnn3c2)C1 (single isomer, unassigned) [Example 8 (1R,3S)]",< 100
5,"C=CC(=O)N[C@H]1CC[C@@H](c2cc(Nc3cc4n(n3)CCOC4)c3ncnn3c2)C1 (single isomer, unassigned) [Example 8 (1S,3R)]",< 100
6,"C=CC(=O)N[C@@H]1CC[C@H](c2cc(Nc3ccc(N4CCOCC4)cn3)c3ncnn3c2)C1 (single isomer, unassigned) [Example 9 (1R,3S)]",< 100
7,"C=CC(=O)N[C@H]1CC[C@@H](c2cc(Nc3ccc(N4CCOCC4)cn3)c3ncnn3c2)C1 (single isomer, unassigned) [Example 9 (1S,3R)]",100 to 1000
8,"C=CC(=O)N1CCC[C@@H](c2cc(Nc3cc4n(n3)CCOC4)c3ncnn3c2)C1 (single isomer, unassigned) [Example F1.24]",1000 to 50000
9,"C=CC(=O)N1CC[C@@H](c2cn3ncnc3c(Nc3cnn(C)c3)n2)C1 (single isomer, unassigned) [Example F1.25]",1000 to 50000
10,C=CC(=O)NCc1cccc(-c2cn3ncnc3c(Nc3ccc(N4CCOCC4)cc3)n2)c1 [C.1.1],1000 to 50000
11,"C=CC(=O)N1CCC(c2cc(Nc3ccn(C)n3)c3ncnn3c2)C1 (stereo not drawn) [Example 1, 1-(3-(8-((1-methyl-1H-pyrazol-3-yl)amino)-[1,2,4]triazolo[1,5-a]pyridin-6-yl)pyrrolidin-1-yl)prop-2-en-1-one]",< 100
12,"C=CC(=O)N1CCC(c2cc(Nc3ccc(OC)nn3)c3ncnn3c2)C1 (stereo not drawn) [Example 2, 1-(3-(8-(6-Methoxypyridazin-3-ylamino)-[1,2,4]triazolo[1,5-a]pyridin-6-yl)pyrrolidin-1-yl)prop-2-en-1-one trifluoroacetate]",100 to 1000
13,"C=CC(=O)N1CC[C@H](c2cc(Nc3cc4n(n3)CCOC4)c3ncnn3c2)C1 [Example 4, 1-{(R)-3-[8-(6,7-Dihydro-4H-pyrazolo[5,1-c][1,4]oxazin-2-ylamino)-[1,2,4]triazolo[1,5-a]pyridin-6-yl]-pyrrolidin-1-yl}-propenone]",< 100
14,"C=CC(=O)N1CCCC(c2cc(Nc3cc4n(n3)CCOC4)c3ncnn3c2)C1 (stereo not drawn) [Example F1.30, 1-(3-(8-((6,7-dihydro-4H-pyrazolo[5,1-c][1,4]oxazin-2-yl)amino)-[1,2,4]triazolo[1,5-a]pyridin-6-yl)piperidin-1-yl)prop-2-en-1-one]",100 to 1000
15,"C=CC(=O)N1CCCC(c2cc(Nc3nc(C(C)C)no3)c3ncnn3c2)C1 (stereo not drawn) [Example F1.31, 1-(3-(8-((3-isopropyl-1,2,4-oxadiazol-5-yl)amino)-[1,2,4]triazolo[1,5-a]pyridin-6-yl)piperidin-1-yl)prop-2-en-1-one]",1000 to 50000
16,"C=CC(=O)N1CCCC(c2cc(Nc3nc(C)no3)c3ncnn3c2)C1 (stereo not drawn) [Example F1.32, 1-(3-(8-((3-methyl-1,2,4-oxadiazol-5-yl)amino)-[1,2,4]triazolo[1,5-a]pyridin-6-yl)piperidin-1-yl)prop-2-en-1-one]",1000 to 50000
17,"C=CC(=O)N1CC[C@@H](c2cc(Nc3cc4n(n3)CCOC4)c3ncnn3c2)C1 [Example F1.33, (S)-1-(3-(8-((6,7-dihydro-4H-pyrazolo[5,1-c][1,4]oxazin-2-yl)amino)-[1,2,4]triazolo[1,5-a]pyridin-6-yl)pyrrolidin-1-yl)prop-2-en-1-one]",1000 to 50000

# Second part, the molecule after the results:
row,IC50 [nM],Compound
1,< 100,"C=CS(=O)(=O)N1CC[C@H](c2cn3ncnc3c(Nc3ccc(OC)c(OC)c3)n2)C1 (single isomer, unassigned) [H.1]"
2,100 to 1000,C=CC(=O)N[C@H]1CC[C@@H](c2cc(Nc3ccn(C)n3)c3ncnn3c2)C1 [Example F1.34]
3,< 100,C=CC(=O)N[C@@H]1CCC[C@H](c2cc(Nc3ccn(C)n3)c3ncnn3c2)C1 [Example F1.35]
4,100 to 1000,C=CC(=O)N[C@H]1CCC[C@H](c2cc(Nc3ccn(C)n3)c3ncnn3c2)C1 [Example F1.36]
5,1000 to 50000,"C=CC(=O)N1CC[C@@H](c2cc(Nc3ccn(C)n3)c3ncnn3c2)C1 [Example F1.37, (S)-1-(3-(8-((1-methyl-1H-pyrazol-3-yl)amino)-[1,2,4]triazolo[1,5-a]pyridin-6-yl)pyrrolidin-1-yl)prop-2-en-1-one]"
6,< 100,"C=CC(=O)N1CCC(c2cn3ncnc3c(Nc3ccc4c(c3)NC(=O)CCC4)n2)C1 (stereo not drawn) [F.1, 8-((6-(1-acryloylpyrrolidin-3-yl)-[1,2,4]triazolo[1,5-a]pyrazin-8-yl)amino)-4,5-dihydro-1H-benzo[b]azepin-2(3H)-one]"
7,100 to 1000,C=CC(=O)NCc1cccc(-c2cn3ncnc3c(NC34CC(C3)C4)n2)c1 [F.1.1]
8,100 to 1000,C=CC(=O)Nc1cccc(-c2cn3ncnc3c(NC34CC(C3)C4)n2)c1 [F.1.2]
9,1000 to 50000,C=CC(=O)Nc1ccccc1-c1cn2ncnc2c(NC23CC(C2)C3)n1 [F.1.3]
10,< 100,"C=CC(=O)N1CCCC(c2cn3ncnc3c(Nc3ccc4c(c3)NC(=O)CCC4)n2)C1 (stereo not drawn) [F.1.4, 8-((6-(1-acryloylpiperidin-3-yl)-[1,2,4]triazolo[1,5-a]pyrazin-8-yl)amino)-4,5-dihydro-1H-benzo[b]azepin-2(3H)-one]"
11,< 100,"C=CC(=O)Nc1cccc(-c2cn3ncnc3c(Nc3ccc4c(c3)NC(=O)CCC4)n2)c1 [F.1.5, N-(3-(8-((2-oxo-2,3,4,5-tetrahydro-1H-benzo[b]azepin-8-yl)amino)-[1,2,4]triazolo[1,5-a]pyrazin-6-yl)phenyl)acrylamide]"
12,100 to 1000,C=CC(=O)N1CCC(c2cn3ncnc3c(Nc3ccc(OC)c(OC)c3)n2)C1 (stereo not drawn) [F.1.8]
13,< 100,"C=CC(=O)N1CC[C@@H](c2cn3ccnc3c(Nc3ccc4c(c3)NC(=O)CCC4)n2)C1 [F.1.9, (R)-8-((6-(1-acryloylpyrrolidin-3-yl)imidazo[1,2-a]pyrazin-8-yl)amino)-4,5-dihydro-1H-benzo[b]azepin-2(3H)-one]"
14,100 to 1000,"C=CC(=O)N1CC[C@H](c2cn3ccnc3c(Nc3ccc4c(c3)NC(=O)CCC4)n2)C1 [F.1.10, (S)-8-((6-(1-acryloylpyrrolidin-3-yl)imidazo[1,2-a]pyrazin-8-yl)amino)-4,5-dihydro-1H-benzo[b]azepin-2(3H)-one]"
15,100 to 1000,C=CC(=O)N1CC[C@H](c2cn3ncnc3c(Nc3ccc(OC)c(OC)c3)n2)C1 [F.1.11]
16,100 to 1000,"C=CC(=O)N1CCC(c2cn3ncnc3c(Nc3ccc4c(c3)NC(=O)CC4)n2)C1 (stereo not drawn) [F.1.13, 7-((6-(1-acryloylpyrrolidin-3-yl)-[1,2,4]triazolo[1,5-a]pyrazin-8-yl)amino)-3,4-dihydroquinolin-2(1H)-one]"
17,100 to 1000,"C=CC(=O)N1CCC(c2cc(Nc3ccc4c(c3)NC(=O)CCC4)c3ncnn3c2)C1 (stereo not drawn) [F.1.15, 8-((6-(1-acryloylpyrrolidin-3-yl)-[1,2,4]triazolo[1,5-a]pyridin-8-yl)amino)-4,5-dihydro-1H-benzo[b]azepin-2(3H)-one]"
18,1000 to 50000,"C=CC(=O)N1CCC(c2cn3ncnc3c(NC)n2)C1 (stereo not drawn) [F.1.16, 1-(3-(8-(methylamino)-[1,2,4]triazolo[1,5-a]pyrazin-6-yl)pyrrolidin-1-yl)prop-2-en-1-one]"
19,100 to 1000,"C=CC(=O)N1CCC(c2cn3ncnc3c(Nc3ccc(N4CCOCC4)nc3)n2)C1 (stereo not drawn) [F.1.19, 1-(3-(8-((6-morpholinopyridin-3-yl)amino)-[1,2,4]triazolo[1,5-a]pyrazin-6-yl)pyrrolidin-1-yl)prop-2-en-1-one]"
20,100 to 1000,"C=CC(=O)N1CCCC(c2cc(Nc3ccn(C)n3)c3ncnn3c2)C1 (stereo not drawn) [F.1.21, 1-(3-(8-((1-methyl-1H-pyrazol-3-yl)amino)-[1,2,4]triazolo[1,5-a]pyridin-6-yl)piperidin-1-yl)prop-2-en-1-one]"
21,< 100,"C=CC(=O)N1CCC(c2cn3ncnc3c(Nc3cnn(C)c3)n2)C1 (stereo not drawn) [F.1.22, 1-(3-(8-((1-methyl-1H-pyrazol-4-yl)amino)-[1,2,4]triazolo[1,5-a]pyrazin-6-yl)pyrrolidin-1-yl)prop-2-en-1-one]"
22,1000 to 50000,"C=CC(=O)N1CCC(c2cn3ncnc3c(Nc3ccn(C)n3)n2)C1 (stereo not drawn) [F.1.23, 1-(3-(8-((1-methyl-1H-pyrazol-3-yl)amino)-[1,2,4]triazolo[1,5-a]pyrazin-6-yl)pyrrolidin-1-yl)prop-2-en-1-one]"
23,< 100,"C=CC(=O)N1CC[C@H](c2cc(Nc3ccn(C)n3)c3ncnn3c2)C1 [F.1.38, (R)-1-(3-(8-((1-methyl-1H-pyrazol-3-yl)amino)-[1,2,4]triazolo[1,5-a]pyridin-6-yl)pyrrolidin-1-yl)prop-2-en-1-one]"
24,< 100,C=CC(=O)N1CC[C@@H](c2cc(Nc3cc4n(n3)CCN(C)C4)c3ncnn3c2)C1 [F.1.39]
25,< 100,C=CC(=O)N1CCC[C@@H](c2cc(Nc3cc4n(n3)CCN(C)C4)c3ncnn3c2)C1 [F.1.40]
